Laboratory results reported in patent US9790233B2, “Compositions and methods of modulating 15-PGDH activity” (CASE WESTERN RESERVE UNIVERSITY, priority 2012, dated 2017).
Where two headings read alike, the source gives them in different places.

Assays:
Assay type in all cases: cell-based
[1] = system: 15-PGDH luciferase fusion construct in V9m reporter cell line; experiment: 15-PGDH-luciferase fusion gene reporter induction, V9m cells; conditions: read-out: V9M reporter activity ([…]), […]
[2] = system: 15-PGDH luciferase fusion construct in LS174T reporter cell line; experiment: 15-PGDH-luciferase fusion gene reporter induction, LS174T cells; conditions: Homo sapiens
[3] = system: 15-PGDH luciferase fusion construct in Vaco503 reporter cell line; experiment: 15-PGDH-luciferase fusion gene reporter induction, V503 cells; conditions: read-out: V503 reporter activity ([…]), […]
[4] = % increased luciferase activity over basal level, 100 = doubling, read-out: V9M reporter activity (2.5 uM)
[5] = % increased luciferase activity over basal level, 100 = doubling, read-out: V9M reporter activity (7.5 uM)
[6] = read-out: LS174T reporter activity ([…]), […], % increased luciferase activity over basal level, read-out: LS174T reporter activity (2.5 uM)
[7] = read-out: LS174T reporter activity ([…]), […], % increased luciferase activity over basal level, read-out: LS174T reporter activity (7.5 uM)
[8] = % increased luciferase activity over basal level, read-out: V503 reporter activity (2.5 uM)
[9] = % increased luciferase activity over basal level, read-out: V503 reporter activity (7.5 uM)
[10] = % induction of luciferase activity over basal level, Table 17, read-out: V9M reporter activity (2.5 μM)
[11] = % induction over basal level, Table 17, read-out: V9M reporter activity (7.5 μM)
[12] = read-out: LS174T reporter activity ([…]), […], % induction over basal level, Table 17, read-out: LS174T reporter activity (2.5 μM)
[13] = read-out: lS174T reporter activity ([…]), […], % induction over basal level, Table 17, read-out: lS174T reporter activity (7.5 μM)
[14] = % induction over basal level, Table 17, read-out: V503 reporter activity (2.5 μM)
[15] = % induction over basal level, Table 17, read-out: V503 reporter activity (7.5 μM)

Compound | activation at […] [1, 4] [%] | activation at […] [1, 5] [%] | activation at […] [2, 6] [%] | activation at […] [2, 7] [%] | activation at […] [3, 8] [%] | activation at […] [3, 9] [%] | activation at […] [1, 10] [%] | activation at […] [1, 11] [%] | activation at […] [2, 12] [%] | activation at […] [2, 13] [%] | activation at […] [3, 14] [%] | activation at […] [3, 15] [%]
CCCC[S+]([O-])c1sc2ncccc2c1N (stereo not drawn) [SW208064, 2-(butylsulfinyl)thieno[2,3-b]pyridin-3-amine] | 82.6 | 50.1 | 126 | 96.2 | 126 | 96.2 | – | – | – | – | – | –
CCCC[S+]([O-])c1sc2nc(-c3ccccc3)nc(-c3ccccc3)c2c1N (stereo not drawn) [SW208065, 6-(butylsulfinyl)-2,4-diphenylthieno[2,3-d]pyrimidin-5-amine] | 120 | 119 | 73.5 | 87.7 | 73.5 | 87.7 | – | – | – | – | – | –
CCCCSc1ncccc1N [SW208068, 2-(butylthio)pyridin-3-amine] | 12.9 | 12.3 | 14.9 | 15 | 14.9 | 15 | – | – | – | – | – | –
CCCC[S+]([O-])c1ncccc1N (stereo not drawn) [SW208070, 2-(butylsulfinyl)pyridin-3-amine] | 22.6 | 12.1 | 19.7 | 15.4 | 19.7 | 15.4 | – | – | – | – | – | –
CCCCS(=O)(=O)c1sc2nc(-c3cccs3)cc(-c3ccccc3)c2c1N [SW208078, 2-(butylsulfonyl)-4-phenyl-6-(thiophen-2-yl)thieno[2,3-b]pyridin-3-amine] | 36.2 | 34.9 | 72.7 | 40 | 87.7 | 83.8 | – | – | – | – | – | –
CCCCC[S+]([O-])c1sc2nc(-c3cccs3)cc(-c3ccccc3)c2c1N (stereo not drawn) [SW208080, 2-(pentylsulfinyl)-4-phenyl-6-(thiophen-2-yl)thieno[2,3-b]pyridin-3-amine] | 102 | 98.7 | 118 | 117 | 104 | 127 | – | – | – | – | – | –
CCCCCC[S+]([O-])c1sc2nc(-c3cccs3)cc(-c3ccccc3)c2c1N (stereo not drawn) [SW208081, 2-(hexylsulfinyl)-4-phenyl-6-(thiophen-2-yl)thieno[2,3-b]pyridin-3-amine] | 37.8 | 63.6 | 64.5 | 95.1 | 90.5 | 105 | – | – | – | – | – | –
COc1ccc(N(CC(=O)N/N=C/c2cccnc2)S(=O)(=O)c2ccccc2)c(OC)c1 [compound 396087] | – | – | – | – | – | – | -8.51 | 10.1 | 4.37 | 10.2 | 17.2 | 30.8
CCOC(=O)c1sc2nc(-c3ccccc3)cc(-c3ccccc3)c2c1N [compound 405320] | 8.77 | -15.4 | 9.95 | -2.57 | -7.73 | -33.7 | – | – | – | – | – | –
CCc1ccccc1NC(=O)CN(c1ccc(OC)cc1OC)S(=O)(=O)c1ccccc1 [compound 407572] | – | – | – | – | – | – | -8.45 | -6.12 | 2.22 | 6.94 | 17.2 | 35.9
COc1ccc(N(CC(=O)Nc2cccc(Cl)c2)S(=O)(=O)c2ccc(OC)c(OC)c2)cc1 [compound 408961] | – | – | – | – | – | – | -12.4 | 0.56 | 2.46 | -4.51 | 11.7 | 17.6
CCOC(=O)c1sc2nc(-c3cccs3)cc(-c3ccc(F)cc3)c2c1N [compound 413423] | -5.65 | -8.76 | 3.41 | 3.91 | 7.89 | 3.13 | – | – | – | – | – | –
O=C(CN(c1ccc(F)cc1)S(=O)(=O)c1ccccc1)Nc1cccnc1 [compound 414177] | – | – | – | – | – | – | 10.6 | 7.72 | 9.51 | -0.62 | -2.8 | -5.73
O=C(CN(c1ccccc1)S(=O)(=O)c1ccccc1)Nc1ccccn1 [compound 414183] | – | – | – | – | – | – | -9.15 | -3.89 | 5.35 | -4.77 | 11.5 | 37.2
COc1ccc(OC)c(NC(=O)CN(c2ccc([N+](=O)[O-])cc2)S(=O)(=O)c2ccccc2)c1 [compound 414195] | – | – | – | – | – | – | -13.9 | -16.8 | -1.15 | 2.34 | 13.1 | 19.5
COc1ccc(S(=O)(=O)N(CC(=O)Nc2ccccc2)c2ccccc2)cc1 [compound 474738] | – | – | – | – | – | – | -7.27 | 3.48 | -0.36 | 3.5 | 17 | 24.6
COc1ccc(NC(=O)CN(c2ccccc2)S(=O)(=O)c2ccccc2)cc1 [compound 474759] | – | – | – | – | – | – | 2.58 | 6.4 | 5.54 | -0.03 | -5.04 | -12.7
COc1ccc(OC)c(N(CC(=O)Nc2ccccc2F)S(=O)(=O)c2ccccc2)c1 [compound 503270] | – | – | – | – | – | – | -4.47 | 24.1 | 12.3 | 32.8 | 29.9 | 42.1
COc1ccccc1N(CC(=O)Nc1ccc(F)c(Cl)c1)S(=O)(=O)c1ccccc1 [compound 537833] | – | – | – | – | – | – | -7.54 | -7.44 | 4.94 | 9.04 | 42.3 | 73.2
COc1ccc(N(CC(=O)Nc2ccc(C(C)=O)cc2)S(=O)(=O)c2ccccc2)cc1Cl [compound 539430] | – | – | – | – | – | – | 21.3 | 21.4 | 5.62 | 10.4 | 38.8 | 103
O=C(CN(c1ccccn1)S(=O)(=O)c1ccccc1)Nc1ccccc1 [compound 543512] | – | – | – | – | – | – | 36.8 | 79.6 | 18.1 | 8.33 | -4.56 | -4.26
COc1ccc(S(=O)(=O)N(CC(=O)Nc2ccc(Cl)cc2Cl)c2ccccc2)cc1 [compound 543716] | – | – | – | – | – | – | 4.2 | -0.14 | 3.26 | -2.08 | -8.04 | -8.6
COc1ccc(N(CC(=O)Nc2ccc(C(=O)O)cc2)S(=O)(=O)c2ccccc2)cc1 [compound 742790] | – | – | – | – | – | – | 13.8 | 23.1 | 12.8 | 17.3 | 5.94 | 34.4
CCOc1ccccc1N(CC(=O)Nc1ccccc1Br)S(=O)(=O)c1ccc(C)cc1 [compound 771074] | – | – | – | – | – | – | 13.5 | 24.7 | 20.7 | 20.6 | 23 | 39.5
COc1ccc(OC)c(N(CC(=O)Nc2ccccc2Br)S(=O)(=O)c2ccc(C)cc2)c1 [compound 771132] | – | – | – | – | – | – | -2.26 | 12.2 | 14 | 13.5 | 24.8 | 40.8
COc1ccc(N(CC(=O)Nc2ccccc2Br)S(=O)(=O)c2ccc(C)cc2)c(OC)c1 [compound 771138] | – | – | – | – | – | – | -4.36 | 6.75 | 13.6 | 9.23 | 34.4 | 72.6
COc1ccc(OC)c(N(CC(=O)Nc2ccc(I)cc2)S(=O)(=O)c2ccc(C)cc2)c1 [compound 771146] | – | – | – | – | – | – | -38.1 | -78.3 | -31.6 | -68.8 | -49.7 | -86.6
COc1ccc(N(CC(=O)Nc2ccc(Br)cc2)S(=O)(=O)c2ccccc2)c(OC)c1 [compound 785161] | – | – | – | – | – | – | 0.54 | 3.48 | 10.7 | -41.9 | 56.7 | -52.5
COc1ccc(OC)c(N(CC(=O)Nc2cccc(Cl)c2)S(=O)(=O)c2ccc(OC)c(OC)c2)c1 [compound 785254] | – | – | – | – | – | – | -16.1 | -8.48 | 2.93 | 4.29 | 16.1 | 28.3
